In US11299478B2, “2-cyanopyrimidin-4-yl carbamate or urea derivative or salt thereof, and pharmaceutical composition including same” (HANLIM PHARMACEUTICAL CO., LTD., priority 2018, dated 2022):

Target: T1, cathepsin K (Homo sapiens, UniProt P43235)
T1 sequence (P43235 115-329): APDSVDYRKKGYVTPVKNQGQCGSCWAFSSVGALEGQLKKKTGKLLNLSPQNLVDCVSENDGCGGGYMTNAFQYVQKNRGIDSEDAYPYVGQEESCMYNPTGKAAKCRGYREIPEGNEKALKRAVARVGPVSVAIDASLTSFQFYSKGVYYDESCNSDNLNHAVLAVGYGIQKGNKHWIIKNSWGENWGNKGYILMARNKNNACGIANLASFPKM
Assay: Inhibitory activity assay against cathepsin K (enzyme assay)
Assay type: biochemical
Conditions: Z-Phe-Arg-AMC 10 μM, enzyme 1 nM, pH 5.5, 30 minutes
Description: In order to measure the enzyme activity of cathepsin K, a buffer solution (pH 5.5) consisting of 50 mM 2-(N-morpholino)ethanesulfonic acid (MES), 2 mM dithiothreitol (DTT), 2.5 mM ethylenediaminetetraacetic acid (EDTA), 0.01% Triton X-100, and 10% dimethyl sulfoxide (DMSO) was prepared. The substrate, the test material, and the enzyme were mixed in the buffer solution in a predetermined concentration. The Z-Phe-Arg-AMC substrate was used in the final concentration of 10 μM. The test material was used in the final concentrations of 10.0 μM, 3.33 μM, 1.11 μM, 0.370 μM, 0.123 μM, 0.0412 μM, 0.0137 μM, 0.00457 μM, 0.00152 μM, and 0.000508 μM, respectively. The cathepsin K enzyme was used in the final concentration of 1 nM. The final volume of the enzyme reaction solution was 10 μL. After reacting the mixture of substrate, test material, and enzyme for 30 minutes, the enzyme activity was measured with the Synergy Neo (Biotek) microplate reader at an absorption wavelength of 355 nm and an emission wavelength of 460 nm. IC50 values were determined using 4-parameter logistic curve fit program of GraphPad Prism.

N#Cc1nccc(C2(NC(=O)Nc3ccccc3C(F)(F)F)CCCC2)n1 [Example 59, 1-(1-(2-cyanopyrimidin-4-yl)cyclopentyl)-3-(2-(trifluoromethyl)phenyl)urea]
IC50: 174 nM

N#Cc1nccc(C2(NC(=O)Nc3ccc(S(N)(=O)=O)cc3)CCCC2)n1 [Example 72, 4-(3-(1-(2-cyanopyrimidin-4-yl)cyclopentyl)ureido)benzenesulfonamide]
IC50: 331 nM

Cc1cccc(CNC(=O)NC2(c3ccnc(C#N)n3)CCCC2)c1 [Example 47, 1-(1-(2-cyanopyrimidin-4-yl)cyclopentyl)-3-(3-methylbenzyl)urea]
IC50: 105 nM

N#Cc1nccc(C2(NC(=O)OCc3ccccc3)CCCC2)n1 [Example 1, Benzyl (1-(2-cyanopyrimidin-4-yl)cyclopentyl)carbamate]
IC50: 23 nM

N#Cc1nccc(C2(NC(=O)Nc3ccc(N4CCNCC4)cc3)CCCC2)n1 [Example 52, 1-(1-(2-cyanopyrimidin-4-yl)cyclopentyl)-3-(4-(piperazin-1-yl)phenyl)urea]
IC50: 608 nM

COc1ccc(NC(=O)NC2(c3ccnc(C#N)n3)CCCC2)cc1 [Example 81, 1-(1-(2-cyanopyrimidin-4-yl)cyclopentyl)-3-(4-methoxyphenyl)urea]
IC50: 162 nM

COc1ccccc1NC(=O)NC1(c2ccnc(C#N)n2)CCCC1 [Example 79, 1-(1-(2-cyanopyrimidin-4-yl)cyclopentyl)-3-(2-methoxyphenyl)urea]
IC50: 3080 nM

COc1cccc(COC(=O)NC2(c3ccnc(C#N)n3)CCCC2)c1 [Example 6, 3-methoxybenzyl (1-(2-cyanopyrimidin-4-yl)cyclopentyl)carbamate]
IC50: 179 nM

N#Cc1nccc(C2(NC(=O)Nc3cccc(O)c3)CCCC2)n1 [Example 71, 1-(1-(2-cyanopyrimidin-4-yl)cyclopentyl)-3-(3-hydroxyphenyl)urea]
IC50: 547 nM

COc1ccc(CNC(=O)NC2(c3ccnc(C#N)n3)CCCC2)cc1OC [Example 49, 1-(1-(2-cyanopyrimidin-4-yl)cyclopentyl)-3-(3,4-dimethoxybenzyl)urea]
IC50: 590 nM

N#Cc1nccc(C2(NC(=O)NCc3cccc(C(F)(F)F)c3)CCCC2)n1 [Example 57, 1-(1-(2-cyanopyrimidin-4-yl)cyclopentyl)-3-(3-(trifluoromethyl)benzyl)urea]
IC50: 517 nM

COC(=O)CCC#Cc1ccc(-c2ccc(NC(=O)NC3(c4ccnc(C#N)n4)CCCCC3)cc2)cc1 [Example 175, methyl 5-(4′-(3-(1-(2-cyanopyrimidin-4-yl)cyclohexyl)ureido)-[1,1′-biphenyl]-4-yl)pent-4-ynoate]
IC50: 136 nM

Cn1ncc2ccc(-c3ccc(COC(=O)NC4(c5ccnc(C#N)n5)CCCC4)cc3)cc21 [Example 34, 4-(1-methyl-1H-indazol-6-yl)benzyl (1-(2-cyanopyrimidin-4-yl)cyclopentyl)carbamate]
IC50: 2040 nM

N#Cc1nccc(C2(NC(=O)NCc3ccoc3)CCCC2)n1 [Example 53, 1-(1-(2-cyanopyrimidin-4-yl)cyclopentyl)-3-(furan-3-ylmethyl)urea]
IC50: 320 nM

N#Cc1nccc(C2(NC(=O)Nc3ccccc3O)CCCC2)n1 [Example 73, 1-(1-(2-cyanopyrimidin-4-yl)cyclopentyl)-3-(2-hydroxyphenyl)urea]
IC50: 315 nM

COCCc1ccc(OCc2ccc(-c3ccc(NC(=O)NC4(c5ccnc(C#N)n5)CCCCC4)cc3)cc2)cc1 [Example 152, 1-(1-(2-cyanopyrimidin-4-yl)cyclohexyl)-3-(4′-((4-(2-methoxyethyl)phenoxy)methyl)-[1,1′-biphenyl]-4-yl)urea]
IC50: 2400 nM

COc1ccc(CNC(=O)NC2(c3ccnc(C#N)n3)CCCC2)cc1 [Example 70, 1-(1-(2-cyanopyrimidin-4-yl)cyclopentyl)-3-(4-methoxybenzyl)urea]
IC50: 270 nM

COc1cccc(CNC(=O)NC2(c3ccnc(C#N)n3)CCCC2)c1 [Example 69, 1-(1-(2-cyanopyrimidin-4-yl)cyclopentyl)-3-(3-methoxybenzyl)urea]
IC50: 552 nM

N#Cc1cccc(COC(=O)NC2(c3ccnc(C#N)n3)CCCC2)c1 [Example 9, 3-cyanobenzyl (1-(2-cyanopyrimidin-4-yl)cyclopentyl)carbamate]
IC50: 490 nM

CC(C)C1CCN(c2ccc(NC(=O)NC3(c4ccnc(C#N)n4)CCCCC3)cc2)CC1 [Example 145, 1-(1-(2-cyanopyrimidin-4-yl)cyclohexyl)-3-(4-(4-isopropylpiperidin-1-yl)phenyl)urea]
IC50: 76 nM

Cc1ccc(NC(=O)NC2(c3ccnc(C#N)n3)CCCC2)cc1 [Example 39, 1-(1-(2-cyanopyrimidin-4-yl)cyclopentyl)-3-(para-tolyl)urea]
IC50: 108 nM

N#Cc1nccc(C2(NC(=O)NCc3ccc(C(F)(F)F)cc3)CCCC2)n1 [Example 58, 1-(1-(2-cyanopyrimidin-4-yl)cyclopentyl)-3-(4-(trifluoromethyl)benzyl)urea]
IC50: 116 nM

Cc1ccccc1NC(=O)NC1(c2ccnc(C#N)n2)CCCC1 [Example 37, 1-(1-(2-cyanopyrimidin-4-yl)cyclopentyl)-3-(ortho-tolyl)urea]
IC50: 113 nM

Cn1ncc2cc(NC(=O)NC3(c4ccnc(C#N)n4)CCCC3)ccc21 [Example 76, 1-(1-(2-cyanopyrimidin-4-yl)cyclopentyl)-3-(1-methyl-1H-indazol-5-yl)urea]
IC50: 573 nM

COc1cccc(NC(=O)NC2(c3ccnc(C#N)n3)CCCC2)c1 [Example 80, 1-(1-(2-cyanopyrimidin-4-yl)cyclopentyl)-3-(3-methoxyphenyl)urea]
IC50: 157 nM

N#Cc1nccc(C2(NC(=O)OCc3cccc(-c4ccc(N5CCOCC5)cc4)c3)CCCC2)n1 [Example 32, (4′-morpholino-[1,1′-biphenyl]-3-yl)methyl (1-(2-cyanopyrimidin-4-yl)cyclopentyl)carbamate]
IC50: ≥ 10000 nM

N#Cc1nccc(C2(NC(=O)Nc3ccc(C(F)(F)F)cc3)CCCC2)n1 [Example 61, 1-(1-(2-cyanopyrimidin-4-yl)cyclopentyl)-3-(4-(trifluoromethyl)phenyl)urea]
IC50: 292 nM

N#Cc1nccc(C2(NC(=O)Nc3cccc(-c4ccc(C(F)(F)F)cc4)c3)CCCCC2)n1 [Example 112, 1-(1-(2-cyanopyrimidin-4-yl)cyclohexyl)-3-(4′-(trifluoromethyl)-[1,1′-biphenyl]-3-yl)urea]
IC50: 147 nM

N#Cc1nccc(C2(NC(=O)OCc3cccc(Cl)c3)CCCC2)n1 [Example 8, 3-chlorobenzyl (1-(2-cyanopyrimidin-4-yl)cyclopentyl)carbamate]
IC50: 285 nM

N#Cc1nccc(C2(NC(=O)NCCc3ccc(S(N)(=O)=O)cc3)CCCC2)n1 [Example 45, 4-(2-(3-(1-(2-cyanopyrimidin-4-yl)cyclopentyl)ureido)ethyl)benzenesulfonamide]
IC50: 3430 nM

COc1ccccc1CNC(=O)NC1(c2ccnc(C#N)n2)CCCC1 [Example 68, 1-(1-(2-cyanopyrimidin-4-yl)cyclopentyl)-3-(2-methoxybenzyl)urea]
IC50: 219 nM

N#Cc1nccc(C2(NC(=O)Nc3ccc(C(=O)O)cc3)CCCCC2)n1 [Example 135, 4-(3-(1-(2-cyanopyrimidin-4-yl)cyclohexyl)ureido)benzoic acid]
IC50: 111 nM

Cc1cccc(COC(=O)NC2(c3ccnc(C#N)n3)CCCC2)c1 [Example 5, 3-methylbenzyl (1-(2-cyanopyrimidin-4-yl)cyclopentyl)carbamate]
IC50: 161 nM
